Activity calls are given as the source filed them.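 The calls were made as follows: active = compounds giving half or more protection of infected cells from virus-caused growth loss, again on retest; inactive = the rest.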
Tested on: CEM cells HIV-1 protection, formazan growth assay
Test: NCI AIDS Antiviral Assay
Conditions: for IC50: measured here: growth of uninfected CEM cells
Procedure, shortened: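 CEM (human) cells, HIV-1 infected vs uninfected, 5-point dosing, formazan growth read-out. Retest threshold 50% protection.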

SMILES | EC50 | IC50 | outcome
O=C(/C=C/c1ccc(O)c([N+](=O)[O-])c1)CC(=O)/C=C/c1ccc(O)c([N+](=O)[O-])c1 | > 200 µM | 25.7 µM | –
COc1ccc(C2NC3=C(CCCC3)C3(C#N)C(=O)N=C(N)C23C#N)cc1 (centres undefined) | > 200 µM | 107 µM | –
N=C1SCc2c1sc1ccccc21 | > 56.2 µM | 28.8 µM | –
Cc1ccc2c(c1CCCC(C)(C)O)C(=O)C(=O)C(C(C)C)=C2O | > 380 µM | 132 µM | –
Nc1ccc(C(=O)O)c2[nH]c3ccccc3c(=O)c12 | – | – | inactive
O=C(CC1Sc2ccccc2NC1=O)Nc1cccc(Cl)c1 (centres undefined) | > 56.2 µM | > 56.2 µM | –
O=C1NC(=O)C2C(=O)NC(=O)C1C2(c1ccccc1)c1ccc(Cl)cc1 (centres undefined) | > 676 µM | 468 µM | –
CC(C)(C)NNC(=O)/C(=C/c1ccc(Oc2ccc(Cl)c(Cl)c2)cc1)NC(=O)c1ccccc1 | > 5.5 µM | > 5.5 µM | –
O=C1c2ccccc2-c2c1c1ccccc1c(=O)n2-c1cccnc1 | > 30.9 µM | 7.08 µM | –
Cc1c(/C=N/NS(=O)(=O)c2ccccc2)no[n+]1[O-] | > 891 µM | > 200 µM | –
N/C(CSCCSC/C(N)=N/O)=N\O | > 200 µM | > 200 µM | –
COc1ccc(N=Nc2ccc3oc(=O)c(C(=O)Nc4ccccc4C)cc3c2)cc1 | > 200 µM | 66.1 µM | –
C=C1C[C@]2(C)c3ccccc3NC(=O)[C@H]12 | 162 µM | > 200 µM | –
CCOC(=O)C(CCCCn1cnc2ncnc(Cl)c21)(NC(C)=O)C(=O)OCC | – | – | inactive
CCOC(=O)/C(C(=S)NCc1ccccc1)=C(/N)N1CCCC1 | > 200 µM | > 200 µM | –
CC12CCC(CC(=O)/C1=C(/Br)I)C2(C)C (centres undefined) | > 200 µM | 36.3 µM | –
COC(=O)c1cc(=O)n(-c2ccc3nn(C)nc3c2)cc1C(=O)OC | > 200 µM | > 200 µM | –
CS(=O)(=O)CCOC(=O)ON1C(=O)CCC1=O | > 200 µM | 26.9 µM | –
Cc1cc([C@H](C#N)c2nc3ccccc3[nH]2)nc(Cl)n1 | > 200 µM | 22.4 µM | –
CC(C)[C@](O)(C(=O)OCC1=CCN2CC[C@@H](O)[C@@H]12)[C@H](C)O | > 417 µM | > 417 µM | –
Cc1cc2c(cc1C)NC(=O)CC(=O)N2 | > 200 µM | > 200 µM | –
c1cn[nH]c1 | > 3630 µM | 1780 µM | –

SMILES | EC50 | IC50 | outcome
c1ccc2c(c1)CCc1c-2n(CCN2CCCCC2)c2ccccc12 | > 200 µM | 10.7 µM | –
COc1cc2cc(c1Cl)N(C)C(=O)C[C@H](OC(=O)[C@H](C)N(C)C(C)=O)[C@]1(C)O[C@H]1[C@H](C)[C@@H]1C[C@@](O)(NC(=O)O1)[C@H](OC)C=C/C=C(\C)C2 | – | – | inactive
CC(C)(C)[Si](C)(C)OCC1OC(n2ccc(=O)[nH]c2=O)C(OC(=S)Oc2ccccc2)C1O[Si](C)(C)C(C)(C)C (centres undefined) | > 200 µM | 2 µM | –
C=CC1(c2ccc3ccccc3c2)OCC(CC)O1 (centres undefined) | > 200 µM | 87.1 µM | –
CCCCCCCC(=O)O[C@H]1[C@H]2[C@@H](CC1(C)C)C(=O)[C@]13O[C@H]1C(=O)[C@]1(CO1)[C@]23C | > 162 µM | 0.55 µM | –
O=C(O)CCC(NC(=O)/C(=C/c1ccccc1)NC(=O)c1ccccc1)C(=O)O (centres undefined) | > 200 µM | > 200 µM | –
N.N.N.N.O=N[O-].O=N[O-].O=[N+]([O-])[O-].[Co+3] | > 200 µM | > 200 µM | –
COc1ccc(C(CC(=O)c2cccs2)C(=O)c2cccs2)cc1 (centres undefined) | > 200 µM | > 200 µM | –
COc1ccc(OC)c2[nH]c(Sc3c([N+](=O)[O-])ncn3C)nc12 | > 21.4 µM | 7.08 µM | –
CN(C)CCC(=O)C(=Cc1ccc(O)cc1)C(=O)CCN(C)C | > 646 µM | 43.7 µM | –
Cc1ccc(-n2c(=S)[nH]c3ccc(Br)cc3c2=O)cc1 | > 269 µM | 89.1 µM | –
CCOC(=O)C(CO)(CC(CO)(C(C)=O)C(=O)OCC)C(C)=O (centres undefined) | > 200 µM | 27.5 µM | –
C=C(CN(C)C)C1(c2ccccc2)CC2(CCCC2)C(=O)O1 (centres undefined) | > 200 µM | 38 µM | –
Cc1ccc(C)c(COCCOCn2ccc(N)nc2=O)c1 | > 200 µM | > 200 µM | –
O=C(O)[C@@H]1CCCC[C@@H]1C(=O)N(C1CCCCC1)C1CCCCC1 | > 77.6 µM | > 77.6 µM | –
Cc1ccc(N=Nc2c(O)c3ccccc3[nH]c2=O)c(S(=O)(=O)N(C)C)c1 | > 200 µM | > 200 µM | –
COC(=O)C1=C(C(=O)OC)c2cc(OC)ccc2C(C(=S)N(C)C)S1 (centres undefined) | > 200 µM | > 200 µM | –
COc1cc2c(cc1OC)CC1c3cc(OC)c(OC)cc3CCN1CC2 (centres undefined) | > 200 µM | 30.2 µM | –
O=C(O)c1ccc2nc(-c3ccccn3)c(-c3ccccn3)nc2c1 | > 200 µM | > 200 µM | –
CC(=O)Nc1ccc(SC#N)c2c(NC(C)=O)cccc12 | – | – | inactive
C1=C(c2ccccc2)O[C@H](COCc2ccccc2)C(OCc2ccccc2)[C@@H]1OCc1ccccc1 (some centres undefined) | – | – | inactive
Cc1cccc(NC(=O)Nc2ccccc2F)n1 | > 200 µM | > 200 µM | –

SMILES | EC50 | IC50 | outcome
CCOC(=O)/C(C#N)=N\Nc1ccc(-n2c(C)nc3ccc(Br)cc3c2=O)cc1 | > 182 µM | 75.9 µM | –
COC(=O)c1ccccc1C#CCCCOS(C)(=O)=O | > 200 µM | > 200 µM | –
Cc1c(C(=O)Nc2ccc(Cl)cc2)nc(N)nc1-c1cccc(Cl)c1 | > 174 µM | > 174 µM | –
OC(CCN1CCOCC1)(c1cccc(Cl)c1)C1CCCCC1 (centres undefined) | > 200 µM | 41.7 µM | –
Cc1ccc(S(=O)(=O)OC2C3OC(C)(C)OC3OC2C(c2cc(O)c3c(c2O)C(=O)c2ccccc2C3=O)c2cc(O)c3c(c2O)C(=O)c2ccccc2C3=O)cc1 (centres undefined) | > 200 µM | > 200 µM | –
CC(C)(C)/C(O)=C\c1nc2ccc(C(F)(F)F)cc2[nH]c1=O | > 200 µM | > 200 µM | –
Cc1ccc(S(=O)(=O)N/N=C(/c2ccccc2)c2ccsc2C)cc1 | > 200 µM | 29.5 µM | –
CCOC(=O)C(NC(=O)c1cccc(Cl)c1)(N1CCN(c2cc3c(cc2F)c(=O)c(C(=O)O)cn3C2CC2)CC1)C(F)(F)F (centres undefined) | > 20 µM | 10.2 µM | –
O=C(O)C(Cc1ccccc1)NCc1c(O)ccc2c(-c3ccccc3)cc(=O)oc12 (centres undefined) | > 200 µM | > 200 µM | –
O=C(NNC(=S)S)c1ccncc1 | > 200 µM | 95.5 µM | –
COC(=O)c1ccccc1C1CN=NC12Cc1ccccc1C2=O (centres undefined) | > 200 µM | 120 µM | –
[Br][Sn]12[c]3ccccc3CN(Cc3cccc[c]31)Cc1cccc[c]12 | > 200 µM | > 200 µM | –
CCOC(=O)C(NC(=O)c1nc[nH]c1[N+](=O)[O-])C(C)C (centres undefined) | > 91.2 µM | 63.1 µM | –
CCOC1N=C(c2ccccc2)c2cc(Cl)ccc2NC1=O (centres undefined) | > 22.9 µM | > 22.9 µM | –
NC(CSS(=O)(=O)O)=NC1CCCCC1 | > 200 µM | 138 µM | –
O=C(O)C(SC1=NNC2(C(=O)N1)c1ccccc1-c1ccccc12)SC1=NNC2(C(=O)N1)c1ccccc1-c1ccccc12 | – | – | inactive
O=[N+]([O-])C(/C=C(\Cl)[N+](=O)[O-])=C(N1CCCCC1)N1CCCCC1 | > 200 µM | 75.9 µM | –
BrCc1ccc2ccc3ccc(CBr)nc3c2n1 | > 200 µM | 3.72 µM | –
CCSc1[nH]c(NC(=NC(C)C)NC(=O)c2ccccc2)c(C(N)=O)c1C(N)=O | – | – | inactive
COC(=O)C(C(=O)C(=O)Nc1c(Cl)cc([N+](=O)[O-])cc1Cl)c1csc(-n2nc(C3=CCCCC3)cc2-c2ccccc2)n1 (centres undefined) | > 107 µM | > 107 µM | –
CCN1CCCCC(=N\O)/C(=N/O)CCCC1 | > 741 µM | > 741 µM | –
CC1=N/C(=C/c2ccc3c(c2)OCO3)C(=O)O1 | > 155 µM | 105 µM | –

SMILES | EC50 | IC50 | outcome
CC(=O)OCC(OC(C)=O)C(OC(C)=O)C(/C=N/N(C(C)=O)S(=O)(=O)c1ccc(/C=C2\NC(=O)NC2=O)cc1)OC(C)=O (centres undefined) | > 200 µM | 105 µM | –
COc1ccc(-c2oc3cc(OC)c(OC)c(O)c3c(=O)c2O)cc1O | > 200 µM | 1.05 µM | –
C=CC(=O)N1C/C(=C\c2ccc(Cl)c(Cl)c2)C(=O)/C(=C/c2ccc(Cl)c(Cl)c2)C1 | > 5.89 µM | 0.0372 µM | –
CCN(CC)CCCNC(=O)c1ccccc1Nc1c(Cl)cccc1Cl | > 200 µM | 6.76 µM | –
CCOc1ccc(C2Oc3c(cccc3OC)C=C2[N+](=O)[O-])cc1OCC (centres undefined) | > 200 µM | 3.02 µM | –
NC(=O)C(=CNC(=S)Nc1ccccc1)C(N)=O | > 200 µM | > 200 µM | –
CCCCC[C@@H]1CCCC2N=C(CCCCC3OCCO3)CCC21 (some centres undefined) | – | – | inactive
COc1cc(CCCC(O)COc2cccc3c2C2(O)CCCCCC32)cc(OC)c1 (centres undefined) | > 200 µM | 12.6 µM | –
COc1ccc2c(c1)CCCN1Cc3cc(OC)c(OC)cc3CC21 (centres undefined) | > 200 µM | 87.1 µM | –
O=S(=O)(NCCSSCCNS(=O)(=O)c1ccc2ccccc2c1)c1ccc2ccccc2c1 | > 200 µM | 64.6 µM | –
Cc1c(Cc2ccccc2)n(C(C)OCCN(OC(=O)Oc2ccccc2)C(=O)Oc2ccccc2)c(=O)[nH]c1=O (centres undefined) | > 200 µM | 53.7 µM | –
N/C(Cc1ccc(Cl)cc1)=N/O | > 200 µM | > 200 µM | –
CC(=O)Nc1cc(Cl)cc(Cl)c1O | > 200 µM | 53.7 µM | –
COc1ccc(C2CC(c3ccccc3)=Nc3ccccc3S2)cc1OC (centres undefined) | > 39.8 µM | 8.51 µM | –
O=C(O)/C=C\C(=O)Nn1c(Cc2ccc(Cl)cc2)n[nH]c1=O | > 200 µM | > 200 µM | –
CN(C)c1ccc(C=C(C(=O)O)C(=O)O)cc1 | > 550 µM | > 550 µM | –
COC(=O)C1SC[C@H]2C(=O)N(c3ccccc3)C(=O)N12 (some centres undefined) | > 200 µM | > 200 µM | –
c1ccc2sc(SSSc3nc4ccccc4s3)nc2c1 | 14.1 µM | 34.7 µM | –
COc1ccc(-c2c(C(=O)Nc3ccccc3)c(-c3ccccc3)n(C3OC(CO)C(O)C(O)C3O)c(=S)c2C#N)cc1 (centres undefined) | > 200 µM | 107 µM | –
Cc1ccccc1NC(=O)C(=O)C(C(=O)c1ccccc1F)C1OC(=O)c2ccccc21 (centres undefined) | > 302 µM | 51.3 µM | –

Source: PubChem BioAssay AID179 (DTP/NCI, 2004)
